Assay results published in BigSolDB 2.1.

O=CC(NS(=O)(=O)[O-])C(O)C(O)C(O)CO.[Na+] (stereo unspecified)
solubility (mole fraction)
Details	288.15 K	293.15 K	298.15 K	303.15 K	308.15 K	313.15 K	318.15 K
in ethanol	8e-05	0.00012	0.00021	0.00027	0.00035	0.00046	0.00055
in methanol	0.0004	0.00046	0.00052	0.00058	0.00064	0.0007	0.00076
in water	0.0315	0.0345	0.0388	0.0444	0.0514	0.0601	0.0727
